# Data: patent US11702402B2, “Small molecules that block proteasome-associated ubiquitin receptor RPN13 function and uses thereof” (DANA-FARBER CANCER INSTITUTE, INC., priority 2018, dated 2023)
# “Also recorded” adds a separate entry of the source.
# Columns and labels:
# [1] = molecular target: CRBN-DDB1 (Homo sapiens, UniProt Q96SW2); test: CRBN AlphaScreen (displacement of biotinylated-pomalidomide probe); type: binding; conditions: in vitro AlphaScreen; thalidomide and lenalidomide as positive controls
# Sequence of CRBN-DDB1 (Q96SW2 whole entry): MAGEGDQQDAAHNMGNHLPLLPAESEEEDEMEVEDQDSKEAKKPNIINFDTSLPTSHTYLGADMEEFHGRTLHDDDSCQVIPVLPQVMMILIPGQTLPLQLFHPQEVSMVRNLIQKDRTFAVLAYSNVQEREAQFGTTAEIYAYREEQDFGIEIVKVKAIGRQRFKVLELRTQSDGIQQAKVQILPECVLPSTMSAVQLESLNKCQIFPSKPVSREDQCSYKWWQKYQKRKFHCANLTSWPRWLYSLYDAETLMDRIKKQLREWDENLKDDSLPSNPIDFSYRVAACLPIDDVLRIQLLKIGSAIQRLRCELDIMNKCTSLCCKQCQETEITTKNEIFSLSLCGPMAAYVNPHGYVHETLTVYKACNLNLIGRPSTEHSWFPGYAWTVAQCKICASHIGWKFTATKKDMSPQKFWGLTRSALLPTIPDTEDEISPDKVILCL
# Sequence of CRBN-DDB1 (Q16531 whole entry partner): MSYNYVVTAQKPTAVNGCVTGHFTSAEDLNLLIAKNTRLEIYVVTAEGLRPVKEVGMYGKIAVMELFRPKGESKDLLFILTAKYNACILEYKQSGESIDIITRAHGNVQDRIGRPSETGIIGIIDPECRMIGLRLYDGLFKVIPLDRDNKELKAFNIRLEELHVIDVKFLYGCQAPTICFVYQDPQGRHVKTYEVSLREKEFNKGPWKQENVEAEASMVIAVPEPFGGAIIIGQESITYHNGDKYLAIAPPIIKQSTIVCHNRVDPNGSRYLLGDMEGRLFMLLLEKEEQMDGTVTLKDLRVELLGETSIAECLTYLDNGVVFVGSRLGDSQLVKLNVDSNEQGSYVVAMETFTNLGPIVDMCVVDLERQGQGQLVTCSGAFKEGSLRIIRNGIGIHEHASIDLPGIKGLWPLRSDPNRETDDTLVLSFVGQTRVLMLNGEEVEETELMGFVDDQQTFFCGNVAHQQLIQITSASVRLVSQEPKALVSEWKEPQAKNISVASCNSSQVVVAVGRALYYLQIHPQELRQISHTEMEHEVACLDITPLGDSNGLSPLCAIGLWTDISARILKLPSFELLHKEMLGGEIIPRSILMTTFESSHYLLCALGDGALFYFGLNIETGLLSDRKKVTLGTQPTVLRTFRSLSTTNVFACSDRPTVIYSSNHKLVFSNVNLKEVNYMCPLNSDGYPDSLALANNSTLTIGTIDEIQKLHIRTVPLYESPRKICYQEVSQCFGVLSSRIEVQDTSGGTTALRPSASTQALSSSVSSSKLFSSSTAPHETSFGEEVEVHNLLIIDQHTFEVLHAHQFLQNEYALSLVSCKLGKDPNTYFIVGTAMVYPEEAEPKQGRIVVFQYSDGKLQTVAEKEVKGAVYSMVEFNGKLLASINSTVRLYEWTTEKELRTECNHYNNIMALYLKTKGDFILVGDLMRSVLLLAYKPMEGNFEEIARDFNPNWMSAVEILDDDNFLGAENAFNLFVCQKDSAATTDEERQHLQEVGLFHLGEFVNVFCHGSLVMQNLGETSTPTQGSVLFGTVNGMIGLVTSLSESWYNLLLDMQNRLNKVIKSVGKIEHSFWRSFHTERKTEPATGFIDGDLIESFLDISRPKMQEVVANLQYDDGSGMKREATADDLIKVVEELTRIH
# [2] = test system: Ub-tagged GFP that is constitutively targeted for proteasomal degradation; test: Ub-GFP (GFPu-1) reporter cell line immunoblot; type: cell-based; conditions: 16 hours
# Method: Cell lysates were loaded on SDS-PAGE, transferred to PVDF membrane, then immunoblotted with anti-GFP, and anti beta-actin antibodies.
# In FIG. 18, a reporter cell line expressing Ub-tagged GFP that is constitutively targeted for proteasomal degradation was treated with RA190 ([…]); and JQRA ([…]) for 16 hours. Cell lysates were loaded on SDS-PAGE, transferred to PVDF membrane, then immunoblotted with anti-GFP, and anti-alpha tubulin antibodies.
# FIGS. 19A-19I show the exemplary design and characterization of exemplary Rpn13 degrader WL40. […] WL40 was created by linking the Rpn13 inhibitor RA190 to the IMiD thalidomide as a ligand for the CRBN E3 ligase via a PEG linker. […] FIG. 19C is a schematic cartoon for the novel AlphaScreen assay to measure the binding activity of inhibitor with RPN13 proteins. […] FIG. 19E depicts immunoblot analysis of multiple myeloma 1S (MM.1S) cells, which were treated with WL40 or RA190 at the indicated concentrations and time periods; protein lysates were subjected to the immunoblot analysis using anti-Rpn13 or anti-tubulin Abs. FIG. 19F depicts flow cytometry analysis of MM.1S cells, which were treated with DMSO control, WL40 (400 nM), or RA190 (500 nM) for 16 hours; cells were then washed and stained with Rpn13 Ab conjugated with AlexaFluor-647, followed by the flow cytometry analysis. Isotype Ab conjugated to AlexaFluor-647 was used as control for non-specific binding. Data was quantified using FACS Diva (BD Biosciences, USA) and FlowJo (FlowJo LLC, USA). FIG. 19G depicts immunoblot analysis of MM.1S-CRBN KO cells, which were treated with WL40 (400 nM) or RA190 (500 nM) for 16 hours; protein lysates were subjected to the immunoblot analysis using anti-Rpn13 or anti β-actin Abs. […]
# To confirm that CRBN presence is a prerequisite for the function of WL40 in cells, CRBN-knockout (KO) MM.1S cells^27, 38 were utilized, and the effect of WL40 on Rpn13 degradation was examined. […] GFPu-1 cells were treated with WL40, and GFP levels were then analyzed using immunoblotting. […]
# [3] = test system: MM.1S CRBN KO cells; test: MM.1S CRBN KO cell viability; type: cell-based, Human
# Source text: FIGS. […] Wst-1 assay was used to test cell viability.
# The experiment was repeated twice and JQRA concentration was increased (as indicated) at the second time.
Structure (SMILES),CRBN binding [1],"Ub-GFP levels / proteasome function (immunoblot) ([2]; 312 μM, 625 μM, 1250 μM, 2500 μM, 5000 μM)","cytotoxicity (percentage of viable cells) ([3]; CRBN-KO cells, 72 hours)","Ub-GFP levels / proteasome function (immunoblot) ([2]; WL40, WL44 0.5-2.0 μM, RA190 1 μM)","cell viability ([3]; MM.1S-CRBN KO, 24 hours, Wst-1)"
"Cl.N[C@@H](Cc1ccccc1)C(=O)N1C/C(=C/c2ccc(Cl)c(Cl)c2)C(=O)/C(=C\c2ccc(Cl)c(Cl)c2)C1 [RA190, reference compound]",did not show any binding to CRBN,blocks proteasome function,more robust MM cytotoxicity,,
O=C1CCC(N2C(=O)c3cccc(NCCOCCOCCOCCC(=O)N[C@@H](Cc4ccccc4)C(=O)N4C/C(=C\c5ccc(Cl)c(Cl)c5)C(=O)/C(=C/c5ccc(Cl)c(Cl)c5)C4)c3C2=O)C(=O)N1 (stereo partly drawn) [WL40],interacts with the E3 ubiquitin receptor CRBN,,,block proteasome function; also recorded: increases GFP levels,decrease cell viability
